In US20250263370A1 (Tay Therapeutics Limited, priority 2022, published 2025):
Several values for one entry are separate records, joined by “and”; a condition that tells them apart may be missing. Equal values may be shown once. Entries after “also recorded” stand apart in the source; their conditions may differ.

Test system: collagen-induced arthritis
Assay: Collagen-induced arthritis (CIA) model in rats: body weight, paw volume, clinical scores, clinical observations
Settings: CIA rats
[1] = 3 mg/kg twice daily P.O. (group 5)
[2] = 3 mg/kg twice daily P.O. (group 5), day 13
[3] = 3 mg/kg twice daily P.O. (group 5), day 14
[4] = 3 mg/kg twice daily P.O. (group 5), days 18, 19 and 21
[5] = 10 mg/kg twice daily P.O. (group 6)
[6] = 10 mg/kg twice daily P.O. (group 6), day 12
[7] = 10 mg/kg twice daily P.O. (group 6), day 14

Question: With `CNC(=O)c1[nH]c(C(=O)NC2CCC2)cc1O[C@@H](C)c1ccccc1` (stereo in doubt) [Example 101, N^5-cyclobutyl-N^2-methyl-3-(1-phenylethoxy)-1H-pyrrole-2,5-dicarboxamide] as the compound, how does the “day on which paw volume noticeably increased” value [1] read?
Answer: ~14 days

Question: What about the “effect on hind paw volume” value [1] of the same compound?
Answer: less effective at preventing an increase in paw volume over the course of the study; also recorded: performed similarly to GSK620

Question: What about the “average overall clinical score at plateau” value (3 mg/kg twice daily P.O. (group 5), around day 18) of the same compound?
Answer: 10

Question: What about the “animals exhibiting signs of disease” value (3 mg/kg twice daily P.O. (group 5), day 12) of the same compound?
Answer: Three animals

Question: And the animals exhibiting disease [2]?
Answer: 5/8

Question: What about the “animals with a clinical score of 2 in one hind limb” value [2] of the same compound?
Answer: 1/8

Question: And the animals exhibiting disease [3]?
Answer: all animals

Question: And the “animals with clinical scores of at least 2 in one or more hind limbs” value [3]?
Answer: 2/8

Question: What about the “animals with a score of 4 in one hind limb and a score of 3 in the other hind limb” value [4] of the same compound?
Answer: 2/8

Question: And the “animals with scores of 4 in each hind limb” value [4]?
Answer: 6/8

Question: What about the “paw volume increase at plateau relative to day 0” value (3 mg/kg twice daily P.O. (group 5), plateau at days 18-19) of the same compound?
Answer: approximately 90%

Question: And the “Average animal paw volume percent change” value (3 mg/kg, Day 0, left hind paw (L))?
Answer: 0.00%

Question: What about the “Animal paw volume Day 0 L” value (3 mg/kg, Day 0, left paw, individual animals) of the same compound?
Answer: 1.36 mL and 1.31 mL (2×) and 1.32 mL (2×) and 1.35 mL and 1.37 mL and 1.34 mL

Question: What about the “Average animal paw volume percent change” value (3 mg/kg, Day 0, right hind paw (R)) of the same compound?
Answer: 0.00%

Question: And the “Animal paw volume Day 0 R” value (3 mg/kg, Day 0, right paw, individual animals)?
Answer: 1.38 mL and 1.32 mL (2×) and 1.34 mL (3×) and 1.31 mL and 1.35 mL

Question: And the “Average animal paw volume percent change” value (3 mg/kg, Day 6, left hind paw (L))?
Answer: 1.09%

Question: And the “Animal paw volume Day 6 L” value (3 mg/kg, Day 6, left paw, individual animals)?
Answer: 1.36 mL (2×) and 1.32 mL (2×) and 1.40 mL and 1.31 mL and 1.37 mL and 1.35 mL

Question: What about the “Average animal paw volume percent change” value (3 mg/kg, Day 6, right hind paw (R)) of the same compound?
Answer: 1.23%

Question: And the “Animal paw volume Day 6 R” value (3 mg/kg, Day 6, right paw, individual animals)?
Answer: 1.38 mL and 1.33 mL and 1.35 mL and 1.40 mL and 1.36 mL (2×) and 1.32 mL and 1.34 mL

Question: And the “Average animal paw volume percent change” value (3 mg/kg, Day 12, left hind paw (L))?
Answer: 5.80%

Question: And the “Animal paw volume Day 12 L” value (3 mg/kg, Day 12, left paw, individual animals)?
Answer: 1.38 mL and 1.32 mL and 1.39 mL (3×) and 1.42 mL and 1.37 mL and 1.63 mL

Question: What about the “Average animal paw volume percent change” value (3 mg/kg, Day 12, right hind paw (R)) of the same compound?
Answer: 5.01%

Question: What about the “Animal paw volume Day 12 R” value (3 mg/kg, Day 12, right paw, individual animals) of the same compound?
Answer: 1.40 mL and 1.43 mL and 1.38 mL (2×) and 1.46 mL and 1.44 mL and 1.36 mL and 1.39 mL

Question: What about the “Average animal paw volume percent change” value (3 mg/kg, Day 13, left hind paw (L)) of the same compound?
Answer: 15.11%

Question: What about the “Animal paw volume Day 13 L” value (3 mg/kg, Day 13, left paw, individual animals) of the same compound?
Answer: 1.62 mL and 1.53 mL and 1.50 mL and 1.54 mL and 1.38 mL and 1.86 mL and 1.43 mL and 1.41 mL

Question: And the “Average animal paw volume percent change” value (3 mg/kg, Day 13, right hind paw (R))?
Answer: 9.28%

Question: What about the “Animal paw volume Day 13 R” value (3 mg/kg, Day 13, right paw, individual animals) of the same compound?
Answer: 1.42 mL (2×) and 1.50 mL and 1.41 mL and 1.47 mL and 1.40 mL and 1.68 mL and 1.39 mL

Question: What about the “Average animal paw volume percent change” value (3 mg/kg, Day 14, left hind paw (L)) of the same compound?
Answer: 27.04%

Question: What about the “Animal paw volume Day 14 L” value (3 mg/kg, Day 14, left paw, individual animals) of the same compound?
Answer: 1.67 mL and 1.68 mL (2×) and 1.64 mL and 1.59 mL and 2.01 mL and 1.63 mL (2×)

Question: What about the “Average animal paw volume percent change” value (3 mg/kg, Day 14, right hind paw (R)) of the same compound?
Answer: 19.52%

Question: What about the “Animal paw volume Day 14 R” value (3 mg/kg, Day 14, right paw, individual animals) of the same compound?
Answer: 1.57 mL and 1.52 mL and 1.41 mL and 1.87 mL and 1.50 mL and 2.04 mL and 1.43 mL (2×)

Question: What about the “Average animal paw volume percent change” value (3 mg/kg, Day 15, left hind paw (L)) of the same compound?
Answer: 39.96%

Question: What about the “Animal paw volume Day 15 L” value (3 mg/kg, Day 15, left paw, individual animals) of the same compound?
Answer: 1.72 mL and 1.70 mL and 1.91 mL and 1.65 mL and 2.44 mL and 2.06 mL and 1.74 mL and 1.68 mL

Question: What about the “Average animal paw volume percent change” value (3 mg/kg, Day 15, right hind paw (R)) of the same compound?
Answer: 43.85%

Question: What about the “Animal paw volume Day 15 R” value (3 mg/kg, Day 15, right paw, individual animals) of the same compound?
Answer: 1.66 mL and 1.62 mL and 2.31 mL and 1.71 mL and 2.41 mL and 2.02 mL and 1.99 mL and 1.64 mL

Question: And the “Average animal paw volume percent change” value (3 mg/kg, Day 18, left hind paw (L))?
Answer: 87.19%

Question: And the “Animal paw volume Day 18 L” value (3 mg/kg, Day 18, left paw, individual animals)?
Answer: 2.40 mL and 2.65 mL and 2.62 mL and 2.44 mL (2×) and 2.70 mL and 2.47 mL and 2.22 mL

Question: And the “Average animal paw volume percent change” value (3 mg/kg, Day 18, right hind paw (R))?
Answer: 89.41%

Question: And the “Animal paw volume Day 18 R” value (3 mg/kg, Day 18, right paw, individual animals)?
Answer: 2.21 mL and 2.56 mL and 2.65 mL and 2.37 mL and 2.70 mL and 2.55 mL and 2.50 mL and 2.71 mL

Question: What about the “Average animal paw volume percent change” value (3 mg/kg, Day 19, left hind paw (L)) of the same compound?
Answer: 98.39%

Question: What about the “Animal paw volume Day 19 L” value (3 mg/kg, Day 19, left paw, individual animals) of the same compound?
Answer: 2.51 mL and 2.85 mL and 2.75 mL and 2.50 mL and 2.71 mL and 2.60 mL and 2.43 mL and 2.79 mL

Question: What about the “Average animal paw volume percent change” value (3 mg/kg, Day 19, right hind paw (R)) of the same compound?
Answer: 94.99%

Question: What about the “Animal paw volume Day 19 R” value (3 mg/kg, Day 19, right paw, individual animals) of the same compound?
Answer: 2.21 mL and 2.91 mL and 2.63 mL and 2.37 mL and 2.68 mL and 2.80 mL and 2.49 mL and 2.76 mL

Question: And the “Average animal paw volume percent change” value (3 mg/kg, Day 21, left hind paw (L))?
Answer: 100.54%

Question: And the “Animal paw volume Day 21 L” value (3 mg/kg, Day 21, left paw, individual animals)?
Answer: 2.49 mL and 3.01 mL and 2.76 mL and 2.51 mL and 2.68 mL and 2.64 mL and 2.41 mL and 2.87 mL

Question: And the “Average animal paw volume percent change” value (3 mg/kg, Day 21, right hind paw (R))?
Answer: 94.48%

Question: And the “Animal paw volume Day 21 R” value (3 mg/kg, Day 21, right paw, individual animals)?
Answer: 2.23 mL and 2.91 mL and 2.61 mL and 2.34 mL and 2.69 mL and 2.77 mL (2×) and 2.47 mL

Question: And the “average overall clinical score at plateau” value [5]?
Answer: 7

Question: What about the “day on which paw volume increased” value [5] of the same compound?
Answer: ~14 days

Question: What about the “effect on hind paw volume” value [5] of the same compound?
Answer: Paw volume increases were delayed; also recorded: more effective at controlling paw volume

Question: And the “paw volume relative to CIA + vehicle (group 2)” value [5]?
Answer: significantly decreased relative to group 2 on days 19 and 21 (both paws, p<0.05)

Question: What about the “animals exhibiting signs of disease” value [6] of the same compound?
Answer: 3/8

Question: And the “animals with a score of 2 in one hind limb” value [6]?
Answer: one animal

Question: What about the animals exhibiting disease (10 mg/kg twice daily P.O. (group 6), day 13) of the same compound?
Answer: 4/8

Question: And the “animals with a score of 3 in one or more hind limbs” value [7]?
Answer: 3/8

Question: And the “animals with a score of 4 in a hind limb” value [7]?
Answer: 1/8

Question: What about the animals exhibiting disease (10 mg/kg twice daily P.O. (group 6), day 15) of the same compound?
Answer: 7/8

Question: What about the “animals with scores of 4 in one or more hind limbs” value (10 mg/kg twice daily P.O. (group 6), day 18) of the same compound?
Answer: 4/8

Question: And the animals exhibiting disease (10 mg/kg twice daily P.O. (group 6), day 19)?
Answer: all animals
